Source: US20040180902A1, “3-Substituted quinoline-4-carboxamide derivatives as nk-3 and nk-2 receptor antagonists” (priority 2001, published 2004)

melting point [°C]	Compound
133 to 135	C[C@H](NC(=O)c1c(CN2CCN(C[C@@H](O)CO)C(=O)C2)c(-c2ccccc2)nc2ccccc12)C1CCCCC1 [Example 5, (R) 3-[4-(2,3-Dihydroxy-propyl)-3-oxo-piperazin-1-ylmethyl]-2-phenyl-quinoline-4-carboxylic acid ((S)-1-cyclohexyl-ethyl)-amide]
142 to 144	C[C@H](NC(=O)c1c(CN2CCN(CCOCCO)CC2)c(-c2ccccc2)nc2ccc(F)cc12)C1CCCCC1 [Example 8, 6-Fluoro-3-{4-[2-(2-hydroxy-ethoxy)-ethyl]-piperazin-1-ylmethyl}-2-phenyl-quinoline-4-carboxylic acid ((S)-1-cyclohexyl-ethyl)-amide]
182 to 184	C[C@H](NC(=O)c1c(CN2CCN(CCCO)CC2)c(-c2ccccc2)nc2ccc(F)cc12)C1CCCCC1 [Example 9, 6-Fluoro-3-[4-(3-hydroxy-propyl)-piperazin-1-ylmethyl]-2-phenyl-quinoline-4-carboxylic acid ((S)-1-cyclohexyl-ethyl)-amide]
114 to 116	C[C@H](NC(=O)c1c(CN2CCN(CCO)CC2)c(-c2ccccc2)nc2ccc(F)cc12)C1CCCCC1 [Example 10, 6-Fluoro-3-[4-(2-hydroxy-ethyl)-piperazin-1-ylmethyl]-2-phenyl-quinoline-4-carboxylic acid ((S)-1-cyclohexyl-ethyl)-amide]
120 to 122	C[C@H](NC(=O)c1c(CN2CCN(CCCO)C(=O)C2)c(-c2ccccc2)nc2ccccc12)C1CCCCC1 [Example 14, 3-[4-(3-Hydroxy-propyl)-3-oxo-piperazin-1-ylmethyl]-2-phenyl-quinoline-4-carboxylic acid ((S)-1-cyclohexyl-ethyl)-amide]
240 to 242	C[C@H](NC(=O)c1c(CN2CCNCC2=O)c(-c2ccccc2)nc2ccc(F)cc12)C1CCCCC1 [Example 15, 6-Fluoro-3-(2-oxo-piperazin-1-ylmethyl)-2-phenyl-quinoline-4-carboxylic acid ((S)-1-cyclohexyl-ethyl)-amide]
102 to 104	C[C@H](NC(=O)c1c(CN2CCN(CCOCCO)C(=O)C2)c(-c2cccs2)nc2ccccc12)C1CCCCC1 [Example 17, 3-{4-[2-(2-Hydroxy-ethoxy)-ethyl]-3-oxo-piperazin-1-ylmethyl}-2-thiophen-2-yl-quinoline-4-carboxylic acid ((S)-1-cyclohexyl-ethyl)-amide]
117 to 119	C[C@H](NC(=O)c1c(CN2CCN(CCCO)C(=O)C2)c(-c2cccs2)nc2ccccc12)C1CCCCC1 [Example 18, 3-[4-(3-Hydroxy-propyl)-3-oxo-piperazin-1-ylmethyl]-2-thiophen-2-yl-quinoline-4-carboxylic acid ((S)-1-cyclohexyl-ethyl)-amide]
124 to 126	C[C@H](NC(=O)c1c(CN2CCN(C[C@H](O)CO)CC2)c(-c2ccccc2)nc2ccccc12)C1CCCCC1 [Example 19, 3-[4-((S)-2,3-Dihydroxy-propyl)-piperazin-1-ylmethyl]-2-phenyl-quinoline-4-carboxylic acid ((S)-1-cyclohexyl-ethyl)-amide]
126 to 128	C[C@H](NC(=O)c1c(CN2CCN(C[C@@H](O)CO)CC2)c(-c2ccccc2)nc2ccccc12)C1CCCCC1 [Example 20, 3-[4-((R)-2,3-Dihydroxy-propyl)-piperazin-1-ylmethyl]-2-phenyl-quinoline-4-carboxylic acid ((S)-1-cyclohexyl-ethyl)-amide]
115 to 117	C[C@H](NC(=O)c1c(CN2CCN(C[C@H](O)CO)C(=O)C2)c(-c2cccs2)nc2ccccc12)C1CCCCC1 [Example 23, 3-[4-((S)-2,3-Dihydroxy-propyl)-3-oxo-piperazin-1-ylmethyl]-2-thiophen-2-yl-quinoline-4-carboxylic acid ((S)-1-cyclohexyl-ethyl)-amide]
155 to 157	C[C@H](NC(=O)c1c(CN2CCN(C(=O)NCCO)CC2)c(-c2ccccc2)nc2ccccc12)C1CCCCC1 [Example 25, 3-[4-(2-Hydroxy-ethylcarbamoyl)-piperazin-1-ylmethyl]-2-phenyl-quinoline-4-carboxylic acid ((S)-1-cyclohexyl-ethyl)-amide]

The remaining lines, values behind:

Compound	melting point [°C]
C[C@H](NC(=O)c1c(CN2CCN(CCO)C(=O)C2)c(-c2cccs2)nc2ccccc12)C1CCCCC1 [Example 1, 3-[4-(2-Hydroxy-ethyl)-3-oxo-piperazin-1-ylmethyl]-2-thiophen-2-yl-quinoline-4-carboxylic acid ((S)-1-cyclohexyl-ethyl)-amide]	212 to 215
C[C@H](NC(=O)c1c(CN2CCNC(=O)C2)c(-c2ccccc2)nc2cc(F)c(F)cc12)C1CCCCC1 [Example 2, 6,7-Difluoro-3-(3-oxo-piperazin-1-ylmethyl)-2-phenyl-quinoline-4-carboxylic acid ((S)-1-cyclohexyl-ethyl)-amide]	185 to 190
C[C@H](NC(=O)c1c(CN2CCN(CCOCCO)C(=O)C2)c(-c2ccccc2)nc2ccc(F)cc12)C1CCCCC1 [Example 3, 6-Fluoro-3-{4-[2-(2-hydroxy-ethoxy)-ethyl]-3-oxo-piperazin-1-ylmethyl}-2-phenyl-quinoline-4-carboxylic acid ((S)-1-cyclohexyl-ethyl)-amide]	110 to 112
C[C@H](NC(=O)c1c(CN2CCN(C[C@H](O)CO)C(=O)C2)c(-c2ccccc2)nc2ccccc12)C1CCCCC1 [Example 4, (S) 3-[4-(2,3-Dihydroxy-propyl)-3-oxo-piperazin-1-ylmethyl]-2-phenyl-quinoline-4-carboxylic acid ((S)-1-cyclohexyl-ethyl)-amide]	125 to 127
C[C@H](NC(=O)c1c(CN2CCN(CCCO)C(=O)C2)c(-c2ccccc2)nc2ccc(F)cc12)C1CCCCC1 [Example 6, 6-Fluoro-3-[4-(3-hydroxy-propyl)-3-oxo-piperazin-1-ylmethyl]-2-phenyl-quinoline-4-carboxylic acid ((S)-1-cyclohexyl-ethyl)-amide]	110 to 130
C[C@H](NC(=O)c1c(CN2CCN(CCO)C(=O)C2)c(-c2ccccc2)nc2ccc(F)cc12)C1CCCCC1 [Example 7, 6-Fluoro-3-[4-(2-hydroxy-ethyl)-3-oxo-piperazin-1-ylmethyl]-2-phenyl-quinoline-4-carboxylic acid ((S)-1-cyclohexyl-ethyl)-amide]	120 to 122
C[C@H](NC(=O)c1c(CN2CCN(CCOCCO)CC2)c(-c2cccs2)nc2ccccc12)C1CCCCC1 [Example 11, 3-{4-[2-(2-Hydroxy-ethoxy)-ethyl]-piperazin-1-ylmethyl}-2-thiophen-2-yl-quinoline-4-carboxylic acid ((S)-1-cyclohexyl-ethyl)-amide]	182 to 188
C[C@H](NC(=O)c1c(CN2CCN(CCO)CC2)c(-c2cccs2)nc2ccccc12)C1CCCCC1 [Example 12, 3-[4-(2-Hydroxy-ethyl)-piperazin-1-ylmethyl]-2-thiophen-2-yl-quinoline-4-carboxylic acid ((S)-1-cyclohexyl-ethyl)-amide]	110
C[C@H](NC(=O)c1c(CN2CCN(CCCO)CC2)c(-c2ccccc2)nc2ccccc12)C1CCCCC1 [Example 13, 3-[4-(3-Hydroxy-propyl)-piperazin-1-ylmethyl]-2-phenyl-quinoline-4-carboxylic acid ((S)-1-cyclohexyl-ethyl)-amide]	168 to 170
C[C@H](NC(=O)c1c(CN2CCN(CCOCCO)C(=O)C2)c(-c2ccccc2)nc2ccccc12)C1CCCCC1 [Example 16, 3-{4-[2-(2-Hydroxy-ethoxy)-ethyl]-3-oxo-piperazin-1-ylmethyl}-2-phenyl-quinoline-4-carboxylic acid ((S)-1-cyclohexyl-ethyl)-amide]	125 to 128
CC(NC(=O)c1c(CN2CCN(C[C@H](O)CO)C(=O)C2)c(-c2ccccc2)nc2ccc(F)cc12)C1CCCCC1 (stereo partly drawn) [Example 21, 3-[4-((S)-2,3-Dihydroxy-propyl)-3-oxo-piperazin-1-ylmethyl]-6-fluoro-2-phenyl-quinoline-4-carboxylic acid (1-cyclohexyl-ethyl)-amide]	190 to 192
C[C@H](NC(=O)c1c(CN2CCN(C[C@@H](O)CO)C(=O)C2)c(-c2ccccc2)nc2ccc(F)cc12)C1CCCCC1 [Example 22, 3-[4-((R)-2,3-Dihydroxy-propyl)-3-oxo-piperazin-1-ylmethyl]-6-fluoro-2-phenyl-quinoline-4-carboxylic acid ((S)-1-cyclohexyl-ethyl)-amide]	143 to 145
